According to PMC3961306, “Comparison of the Cancer Gene Targeting and Biochemical Selectivities of All Targeted Kinase Inhibitors Approved for Clinical Use” (PLoS ONE, 2014):

Columns and labels:
Experiment in all cases: Kinase profiling in a biochemical assay panel (mobility shift assays and ELISA), %-inhibition at 1 μM; selectivity entropy
[1] = target: panel of more than 300 wild-type and mutant kinases (313 kinase panel) (Homo sapiens, UniProt Q07912)
[2] = target: panel of more than 300 wild-type and mutant kinases (313 kinase panel) (Homo sapiens, UniProt Q7KZI7)
[3] = target: panel of more than 300 wild-type and mutant kinases (313 kinase panel) (Homo sapiens, UniProt O75582)
[4] = target: T1, panel of more than 300 wild-type and mutant kinases (313 kinase panel) (Homo sapiens, UniProt O15264)
T1 sequence (O15264 1-365): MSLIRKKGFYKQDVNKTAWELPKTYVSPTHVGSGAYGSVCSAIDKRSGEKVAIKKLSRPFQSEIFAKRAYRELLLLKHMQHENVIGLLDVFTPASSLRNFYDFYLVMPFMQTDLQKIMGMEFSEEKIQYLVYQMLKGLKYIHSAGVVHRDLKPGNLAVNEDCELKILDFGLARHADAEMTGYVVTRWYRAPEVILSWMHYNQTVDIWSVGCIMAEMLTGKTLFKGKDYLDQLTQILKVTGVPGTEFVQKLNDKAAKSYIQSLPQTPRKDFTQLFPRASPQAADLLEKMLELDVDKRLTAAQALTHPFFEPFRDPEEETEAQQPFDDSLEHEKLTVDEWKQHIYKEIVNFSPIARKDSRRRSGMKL

[5] = target: panel of more than 300 wild-type and mutant kinases (313 kinase panel) (Homo sapiens, UniProt Q86V86)
[6] = target: panel of more than 300 wild-type and mutant kinases (313 kinase panel) (Homo sapiens, UniProt P53779)
[7] = target: T2, panel of more than 300 wild-type and mutant kinases (313 kinase panel) (Homo sapiens, UniProt Q99683)
T2 sequence (Q99683 1-1374): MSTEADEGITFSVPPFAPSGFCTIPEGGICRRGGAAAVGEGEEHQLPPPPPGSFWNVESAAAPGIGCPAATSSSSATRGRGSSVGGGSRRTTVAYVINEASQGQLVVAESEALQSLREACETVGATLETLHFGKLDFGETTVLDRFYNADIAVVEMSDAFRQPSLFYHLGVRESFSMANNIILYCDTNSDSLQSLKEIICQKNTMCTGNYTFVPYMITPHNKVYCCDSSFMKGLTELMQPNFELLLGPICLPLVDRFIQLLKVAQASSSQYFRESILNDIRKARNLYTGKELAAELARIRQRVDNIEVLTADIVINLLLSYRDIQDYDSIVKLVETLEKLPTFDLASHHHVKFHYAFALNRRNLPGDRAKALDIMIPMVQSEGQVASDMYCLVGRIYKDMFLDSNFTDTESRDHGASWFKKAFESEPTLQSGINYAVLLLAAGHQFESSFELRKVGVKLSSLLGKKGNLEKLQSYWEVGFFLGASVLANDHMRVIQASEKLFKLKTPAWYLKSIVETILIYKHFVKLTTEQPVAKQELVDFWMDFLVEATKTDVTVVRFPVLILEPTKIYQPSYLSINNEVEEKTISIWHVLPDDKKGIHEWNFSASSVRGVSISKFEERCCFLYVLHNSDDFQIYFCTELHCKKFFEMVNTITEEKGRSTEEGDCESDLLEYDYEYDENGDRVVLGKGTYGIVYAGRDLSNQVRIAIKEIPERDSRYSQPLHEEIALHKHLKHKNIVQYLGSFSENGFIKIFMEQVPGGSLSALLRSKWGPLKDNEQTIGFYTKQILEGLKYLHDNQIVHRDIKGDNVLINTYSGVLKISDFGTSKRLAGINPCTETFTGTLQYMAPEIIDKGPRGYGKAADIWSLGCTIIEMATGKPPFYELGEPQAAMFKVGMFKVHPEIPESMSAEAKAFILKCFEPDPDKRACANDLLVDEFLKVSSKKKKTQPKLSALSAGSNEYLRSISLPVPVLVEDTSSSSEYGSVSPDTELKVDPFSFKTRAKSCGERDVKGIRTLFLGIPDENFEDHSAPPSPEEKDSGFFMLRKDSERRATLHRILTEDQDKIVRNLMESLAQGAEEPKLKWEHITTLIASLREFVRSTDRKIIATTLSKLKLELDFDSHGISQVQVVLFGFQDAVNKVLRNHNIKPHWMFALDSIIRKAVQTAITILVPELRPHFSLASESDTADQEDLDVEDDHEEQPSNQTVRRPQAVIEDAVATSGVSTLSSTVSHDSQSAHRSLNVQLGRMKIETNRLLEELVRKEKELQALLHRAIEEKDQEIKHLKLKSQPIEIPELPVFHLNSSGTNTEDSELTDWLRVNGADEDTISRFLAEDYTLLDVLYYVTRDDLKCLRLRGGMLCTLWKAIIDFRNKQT

[8] = target: T3, panel of more than 300 wild-type and mutant kinases (313 kinase panel) (Homo sapiens, UniProt P00540)
T3 sequence (P00540 1-346): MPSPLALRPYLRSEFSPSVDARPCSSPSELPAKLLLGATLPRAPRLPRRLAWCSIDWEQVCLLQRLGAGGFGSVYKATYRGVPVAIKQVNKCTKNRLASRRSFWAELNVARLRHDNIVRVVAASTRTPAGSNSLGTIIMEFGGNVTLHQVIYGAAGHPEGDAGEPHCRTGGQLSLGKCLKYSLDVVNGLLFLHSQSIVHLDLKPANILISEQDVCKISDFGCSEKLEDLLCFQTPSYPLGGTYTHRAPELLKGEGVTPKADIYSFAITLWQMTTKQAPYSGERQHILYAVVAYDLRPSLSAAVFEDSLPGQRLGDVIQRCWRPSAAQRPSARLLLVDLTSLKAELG

[9] = kinase MAP3K5, compound at 1 μM

Sequence of panel of more than 300 wild-type and mutant kinases (313 kinase panel) (Homo sapiens, UniProt Q07912) (Q07912 whole entry, change not shown): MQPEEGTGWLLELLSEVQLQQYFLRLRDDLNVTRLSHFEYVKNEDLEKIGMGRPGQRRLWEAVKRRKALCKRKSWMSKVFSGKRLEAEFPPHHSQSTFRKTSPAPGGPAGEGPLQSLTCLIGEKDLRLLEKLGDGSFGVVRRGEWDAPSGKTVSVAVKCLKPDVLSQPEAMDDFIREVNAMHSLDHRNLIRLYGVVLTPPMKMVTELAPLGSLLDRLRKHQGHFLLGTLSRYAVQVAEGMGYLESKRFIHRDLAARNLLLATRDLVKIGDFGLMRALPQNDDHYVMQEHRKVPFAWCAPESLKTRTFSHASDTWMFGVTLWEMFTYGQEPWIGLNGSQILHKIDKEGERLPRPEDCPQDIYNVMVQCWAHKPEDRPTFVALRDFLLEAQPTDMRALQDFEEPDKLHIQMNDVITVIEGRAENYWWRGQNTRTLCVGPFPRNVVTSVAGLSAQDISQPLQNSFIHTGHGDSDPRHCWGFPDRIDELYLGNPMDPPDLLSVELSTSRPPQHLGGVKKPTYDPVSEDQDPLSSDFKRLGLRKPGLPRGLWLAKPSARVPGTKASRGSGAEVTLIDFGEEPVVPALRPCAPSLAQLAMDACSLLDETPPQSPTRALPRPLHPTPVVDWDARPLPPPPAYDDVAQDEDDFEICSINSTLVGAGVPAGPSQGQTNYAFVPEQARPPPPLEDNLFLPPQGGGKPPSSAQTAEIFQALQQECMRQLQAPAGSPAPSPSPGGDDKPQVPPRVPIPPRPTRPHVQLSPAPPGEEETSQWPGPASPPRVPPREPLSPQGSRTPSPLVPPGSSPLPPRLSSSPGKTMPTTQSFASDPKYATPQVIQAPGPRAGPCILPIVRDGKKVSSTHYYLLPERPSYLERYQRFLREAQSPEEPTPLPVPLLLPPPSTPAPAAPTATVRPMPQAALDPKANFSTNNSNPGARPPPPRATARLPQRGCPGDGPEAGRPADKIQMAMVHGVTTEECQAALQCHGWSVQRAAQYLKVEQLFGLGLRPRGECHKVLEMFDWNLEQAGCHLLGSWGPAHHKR
Sequence of panel of more than 300 wild-type and mutant kinases (313 kinase panel) (Homo sapiens, UniProt P53779) (P53779 whole entry, change not shown): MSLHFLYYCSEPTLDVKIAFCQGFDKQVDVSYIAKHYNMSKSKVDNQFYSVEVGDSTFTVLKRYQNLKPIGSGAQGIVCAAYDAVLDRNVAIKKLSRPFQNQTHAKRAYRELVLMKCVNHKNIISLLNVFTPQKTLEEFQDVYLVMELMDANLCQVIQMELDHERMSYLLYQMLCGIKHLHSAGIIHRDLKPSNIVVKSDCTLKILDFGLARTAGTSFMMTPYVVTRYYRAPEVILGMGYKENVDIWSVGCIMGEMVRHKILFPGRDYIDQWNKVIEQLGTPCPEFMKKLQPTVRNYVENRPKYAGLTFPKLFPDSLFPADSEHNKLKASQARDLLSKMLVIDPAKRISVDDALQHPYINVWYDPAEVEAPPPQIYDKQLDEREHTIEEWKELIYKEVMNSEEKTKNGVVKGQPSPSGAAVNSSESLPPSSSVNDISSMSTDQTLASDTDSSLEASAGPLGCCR

Row | SMILES | %-inhibition, ACK ([1]; kinase ACK, 1 μM compound) [%] | %-inhibition of MARK2 ([2]; kinase MARK2, compound at 1 μM) [%] | %-inhibition of MSK1 ([3]; kinase MSK1, 1 μM) [%] | %-inhibition of p38δ ([4]; kinase p38δ, 1 μM) [%] | %-inhibition of PIM3 ([5]; kinase PIM3, 1 μM) [%] | %-inhibition of JNK3 ([6]; kinase JNK3, compound at 1 μM) [%] | %-inhibition of MAP3K5 [7, 9] [%] | %-inhibition of MOS ([8]; kinase MOS, 1 μM) [%] | %-inhibition, ACK ([1]; 1 µM) [%] | %-inhibition of MARK2 ([2]; 1 µM) [%] | %-inhibition of MSK1 ([3]; 1 µM) [%] | %-inhibition of p38δ ([4]; 1 µM) [%] | %-inhibition of PIM3 ([5]; 1 µM) [%] | %-inhibition of JNK3 ([6]; 1 µM) [%] | %-inhibition of MAP3K5 ([7]; 1 µM) [%] | %-inhibition of MOS ([8]; 1 µM) [%]
1 | O=S(=O)(c1cccc2cnccc12)N1CCCNCC1 [fasudil] | 0.581 | 3.21 | 37 | -4.39 | 3.45 | -4 | -15 | -24 |  |  |  |  |  |  |  | 
2 | COc1cc2nccc(Oc3ccc(NC(=O)C4(C(=O)Nc5ccc(F)cc5)CC4)cc3)c2cc1OC [cabozantinib] | 30 | -4 | -2 | 47 | 0.402 | -2 | 1.72 | 42 |  |  |  |  |  |  |  | 
3 | CCCS(=O)(=O)Nc1ccc(F)c(C(=O)c2c[nH]c3ncc(-c4ccc(Cl)cc4)cc23)c1F [vemurafenib] | 40 | -0.167 | 0.256 | 8 | -5 | 2.85 | 13 | 10 |  |  |  |  |  |  |  | 
4 | COc1cc2c(Nc3ccc(Br)cc3F)ncnc2cc1OCC1CCN(C)CC1 [vandetanib] | 24 | -9 | -0.384 | 0.0923 | -6 | -0.407 | 8 | 9 |  |  |  |  |  |  |  | 
5 | C#Cc1cccc(Nc2ncnc3cc(OCCOC)c(OCCOC)cc23)c1 [erlotinib] |  |  |  |  |  |  |  |  | 37 | 7 | 9 | 6 | 0.333 | 22 | 5 | 3.64
6 | CNC(=O)c1cc(Oc2ccc(NC(=O)Nc3ccc(Cl)c(C(F)(F)F)c3)c(F)c2)ccn1 [regorafenib] | -3.35 | 2.17 | 1 | 2.22 | -6.53 | 5 | 5 | 0.399 |  |  |  |  |  |  |  | 
7 | CO[C@H]1C[C@@H]2CC[C@@H](C)[C@@](O)(O2)C(=O)C(=O)N2CCCC[C@H]2C(=O)O[C@H]([C@H](C)C[C@@H]2CC[C@@H](OC(=O)C(C)(CO)CO)[C@H](OC)C2)CC(=O)[C@H](C)/C=C(\C)[C@@H](O)[C@@H](OC)C(=O)[C@H](C)C[C@H](C)/C=C/C=C/C=C/1C [temsirolimus] | -8 | -6 | 0 | -5.63 | -1.31 | -1.22 | 2.79 | -1.43 |  |  |  |  |  |  |  | 
8 | Cc1cn(-c2cc(NC(=O)c3ccc(C)c(Nc4nccc(-c5cccnc5)n4)c3)cc(C(F)(F)F)c2)cn1 [nilotinib] | 13 | 0.732 | 2.48 | -10 |  | 39 | -2.28 | -3.64 |  |  |  |  | 13 |  |  | 
9 | CS(=O)(=O)CCNCc1ccc(-c2ccc3ncnc(Nc4ccc(OCc5cccc(F)c5)c(Cl)c4)c3c2)o1 [lapatinib] |  | 10 | 7 | 5.43 | -3.44 | 11 | 6 | 4.31 | 2.36 |  |  |  |  |  |  | 
